Legend:
human complement = details: relative to baboon complement; Sahu et al. 2003; cited from earlier work
baboon complement = details: relative to human complement; Sahu et al. 2003; cited from earlier work
complement [1] = assay: Complement activation in LD100 model of E. coli sepsis in baboons; format: in vivo, Papio cyanocephalus; details: for % Complement Activation at T+120 min: untreated avg. 2.8
Experimental: (§1) Reagents, Compstatin analog and live E. coli organisms were obtained or prepared as described in Example 1. Papio cyanocephalus baboons were infused with 2-3×10^10 CFU/kg live E. coli (LD100 dose) as described (Taylor F B, Jr., et al., 2000, Blood 95: 1680-1686). The time point at which the infusion was started was indicated as T-0, a time point of n minutes or hours thereafter referred to as T+n minutes (or hours). The Compstatin analog was administered at three different concentrations as an intravenous bolus followed by continuous infusion.
(§2) Complement activity was measured in accordance with known methods. Survival time was also recorded.

[2] = test system: baboons infused with live E. coli (LD100 dose); assay: Survival time in LD100 model of E. coli sepsis in baboons; format: in vivo, Papio cyanocephalus; details: for Survival Time: no antibiotics
Experimental: as §1, §2

primate C3 = primate C3 (Homo sapiens, UniProt P01024); details: Janssen et al. 2007; cited from earlier work
complement [3] = assay: Complement activation products and complement activity in plasma, baboon LD50 E. coli sepsis; format: in vivo, Papio cyanocephalus
[4] = test system: baboons infused with live E. coli (LD50 dose); assay: Blood pressure and organ function biochemical tests, baboon LD50 E. coli sepsis; format: in vivo, Papio cyanocephalus
[5] = test system: baboons infused with live E. coli (LD50 dose); assay: Plasma cytokines multiplex assay, baboon LD50 E. coli sepsis; format: in vivo, Papio cyanocephalus
[6] = test system: baboons infused with live E. coli (LD50 dose); assay: Coagulation tests (fibrinogen, FDP, APTT), baboon LD50 E. coli sepsis; format: in vivo, Papio cyanocephalus
[7] = test system: baboons infused with live E. coli (LD50 dose); assay: Histopathological analysis of organs, baboon LD50 E. coli sepsis; format: in vivo, Papio cyanocephalus
[8] = test system: baboons infused with live E. coli (LD50 dose); assay: Immunofluorescence and qRT-PCR of hemostatic proteins (PAI-1, TF, TFPI, TM) in lung and liver, baboon LD50 E. coli sepsis; format: in vivo, Papio cyanocephalus; details: for PAI1 mRNA in liver: vs non-challenged controls (1±0.6), E. coli alone 22-fold (±9)
[9] = test system: baboons infused with live E. coli (LD50 dose); assay: Immunofluorescence of complement pathway proteins in kidney, baboon LD50 E. coli sepsis; format: in vivo, Papio cyanocephalus
[10] = test system: baboons infused with live E. coli (LD50 dose); assay: Hematological parameters and cell accumulation in organs, baboon LD50 E. coli sepsis; format: in vivo, Papio cyanocephalus
[11] = septic baboons, infusion with Compstatin analog
[12] = both preventive and rescue therapy, data not shown
[13] = histology at 24 hrs vs non-treated group
[14] = lung cryosections immunofluorescence, both early and late treatments, FIG. 5A
[15] = immunofluorescence MFI of kidney cryosections, T+24, T0 and T+5 treatment, FIG. 2
[16] = kidney immunofluorescence, FIG. 2

Chain of primate C3 (P01024 23-1663): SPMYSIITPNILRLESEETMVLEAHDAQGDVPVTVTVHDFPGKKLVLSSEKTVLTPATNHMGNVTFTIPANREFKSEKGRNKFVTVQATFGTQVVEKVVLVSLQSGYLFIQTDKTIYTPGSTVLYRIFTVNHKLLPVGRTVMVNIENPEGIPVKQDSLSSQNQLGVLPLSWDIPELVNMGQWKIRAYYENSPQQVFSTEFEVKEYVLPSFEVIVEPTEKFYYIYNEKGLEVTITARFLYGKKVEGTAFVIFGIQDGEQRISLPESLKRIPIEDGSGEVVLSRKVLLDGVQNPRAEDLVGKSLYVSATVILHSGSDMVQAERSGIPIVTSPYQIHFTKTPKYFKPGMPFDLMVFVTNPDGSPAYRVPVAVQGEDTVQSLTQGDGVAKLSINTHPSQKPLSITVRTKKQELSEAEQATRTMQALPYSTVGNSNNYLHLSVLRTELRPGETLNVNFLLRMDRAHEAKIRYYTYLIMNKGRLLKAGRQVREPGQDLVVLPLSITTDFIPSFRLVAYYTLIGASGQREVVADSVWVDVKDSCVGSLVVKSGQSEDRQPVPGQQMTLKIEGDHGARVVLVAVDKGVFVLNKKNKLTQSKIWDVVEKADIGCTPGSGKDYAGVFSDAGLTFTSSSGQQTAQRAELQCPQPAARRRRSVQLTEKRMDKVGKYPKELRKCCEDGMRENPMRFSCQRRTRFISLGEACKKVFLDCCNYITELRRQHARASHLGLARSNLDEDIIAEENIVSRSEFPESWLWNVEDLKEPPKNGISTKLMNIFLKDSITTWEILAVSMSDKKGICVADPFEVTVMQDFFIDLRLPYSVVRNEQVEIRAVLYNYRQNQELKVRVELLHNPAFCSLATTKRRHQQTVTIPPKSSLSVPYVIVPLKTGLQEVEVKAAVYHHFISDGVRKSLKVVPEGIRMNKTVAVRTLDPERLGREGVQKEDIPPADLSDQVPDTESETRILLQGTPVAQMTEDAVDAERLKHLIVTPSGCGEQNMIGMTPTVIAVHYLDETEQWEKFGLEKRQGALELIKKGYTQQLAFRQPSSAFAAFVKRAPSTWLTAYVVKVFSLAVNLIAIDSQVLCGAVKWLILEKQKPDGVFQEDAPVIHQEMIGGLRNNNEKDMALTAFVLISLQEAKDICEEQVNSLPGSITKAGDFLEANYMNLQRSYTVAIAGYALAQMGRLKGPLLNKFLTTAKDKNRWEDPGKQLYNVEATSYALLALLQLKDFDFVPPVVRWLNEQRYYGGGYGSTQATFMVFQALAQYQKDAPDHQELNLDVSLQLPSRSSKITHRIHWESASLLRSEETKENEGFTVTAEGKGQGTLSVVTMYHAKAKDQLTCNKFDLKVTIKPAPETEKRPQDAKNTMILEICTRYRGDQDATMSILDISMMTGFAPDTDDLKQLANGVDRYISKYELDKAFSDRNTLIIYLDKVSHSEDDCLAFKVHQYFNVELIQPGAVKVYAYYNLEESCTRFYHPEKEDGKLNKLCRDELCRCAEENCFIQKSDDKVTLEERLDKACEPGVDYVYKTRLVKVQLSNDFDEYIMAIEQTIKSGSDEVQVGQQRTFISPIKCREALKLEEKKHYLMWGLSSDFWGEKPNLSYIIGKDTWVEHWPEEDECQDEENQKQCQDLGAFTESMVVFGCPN

CC[C@H](C)[C@H](N)C(=O)N[C@H]1CSSC[C@@H](C(=O)N[C@H](C(N)=O)[C@@H](C)O)NC(=O)[C@H](CCCN=C(N)N)NC(=O)[C@H](Cc2cnc[nH]2)NC(=O)[C@H](Cc2cnc[nH]2)NC(=O)CNC(=O)[C@H](Cc2c[nH]c3ccccc23)NC(=O)[C@H](CC(=O)O)NC(=O)[C@H](CCC(N)=O)NC(=O)[C@H](C(C)C)NC(=O)[C@H](C(C)C)NC1=O [Compstatin, Ile-Cys-Val-Val-Gln-Asp-Trp-Gly-His-His-Arg-Cys-Thr]
inhibition of human complement (human complement): approximately equimolar concentrations | inhibition of baboon complement (baboon complement): approximately equimolar concentrations | % Complement Activation at T+120 min (complement [1]; animal 1, bolus 0.33 mg/kg T−0, 1.74 mg/kg T+60, infusion 20 μg/min/kg (8 hrs), total 58 mg): 0.6% | % Complement Activation at T+120 min (complement [1]; animal 2, bolus 1.0 mg/kg T−0, 2.3 mg/kg T+60, infusion 20 μg/min/kg (8 hrs), total 78 mg): 0.5% | % Complement Activation at T+120 min (complement [1]; animal 3, bolus 10 mg/kg T−0, infusion 200 μg/min/kg (8 hrs), total 760 mg): 0.0% | inhibition of complement activation by T+120 minutes (complement [1]; animal receiving the highest concentration): complete inhibition | inhibition of complement activation by T+120 minutes (complement [1]; animals receiving the lesser concentrations): substantial inhibition | Survival Time ([2]; animal 1, bolus 0.33 mg/kg T−0, 1.74 mg/kg T+60, infusion 20 μg/min/kg (8 hrs)): 31.5 h | Survival Time ([2]; animal 2, bolus 1.0 mg/kg T−0, 2.3 mg/kg T+60, infusion 20 μg/min/kg (8 hrs)): 7.0 h | Survival Time ([2]; animal 3, bolus 10 mg/kg T−0, infusion 200 μg/min/kg (8 hrs)): 11.5 h | survival of treated animals ([2]; no antibiotic treatment): died within a few hours | binding to primate C3 (primate C3): specifically binds

Ac-I[CVW(Me)QDWGAHRCT]I-NH2 [Compstatin analog]
plasma complement activity (complement [3]; 10 mg/kg iv bolus + 60 μg/kg/min, both preventive (T0 to T+8) and rescue (T+5 to T+11) treatments, FIG. 1A): inhibited | plasma TCC levels (complement [3]; 10 mg/kg iv bolus + 60 μg/kg/min, both preventive (T0 to T+8) and rescue (T+5 to T+11) treatments, FIG. 1B): inhibited | late rise of plasma TCC levels (complement [3]; rescue regimen (T+5 to T+11) compared with prevention group, FIG. 1B): averting the late rise observed in the prevention group | C3a generation (complement [3]; [11]): rapidly inhibited | C3b generation (complement [3]; [11]): rapidly inhibited | creatinine, magnitude of the response ([4]; T+8 and T+24, two treatment groups vs non treated septic animals, FIG. 6B): lower | LDH, magnitude of the response ([4]; T+8 and T+24, two treatment groups vs non treated septic animals, FIG. 6C): lower | ALT, magnitude of the response ([4]; T+8 and T+24, two treatment groups vs non treated septic animals, FIG. 6D): lower | AST, magnitude of the response ([4]; T+8 and T+24, two treatment groups vs non treated septic animals, FIG. 6E): lower | decrease of mean systemic arterial blood pressure ([4]; early treatment (T0 to T+8), FIG. 6A): virtually abolished this decrease | mean systemic arterial blood pressure ([4]; treatment during the second stage (T+5 to T+11), compared with septic untreated baboons, FIG. 6A): higher recovery of the blood pressure in the late phase | effect on plasma cytokines ([5]; 23-plex assay, nine increased by sepsis, except eotaxin and IL-6, data not shown): marginal | plasma IL-6 [5, 12]: reduction | plasma eotaxin [5, 12]: reduction | fibrinogen levels ([6]; after 24 hours, compared with non-treated animals, FIG. 4A): fully recovered and overshot the initial values | fibrinogen consumption ([6]; first eight hours post-challenge, FIG. 4A): reduced fibrinogen consumption | FDP levels ([6]; treated vs non-treated animals, FIG. 4B): significantly lower | APTT ([6]; treated vs non-treated animals, FIG. 4C): slightly decreased | histopathologic changes of the tissues (graded 0 to 4) ([7]; T+24, two treated groups (T0, T+5) vs E coli challenge group, P<0.001, with the exception of the lung congestion, FIG. 7): significantly less severe | cell death in adrenals and spleen [7, 13]: decreased cell death | hepatocyte vacuolization and liver degeneration [7, 13]: lack of hepatocyte vacuolization and liver degeneration | leukocyte infiltration in the lung, liver adrenals and spleen [7, 13]: less leukocyte infiltration | thrombosis or capillary leak in the lungs [7, 13]: no obvious signs of thrombosis or capillary leak | tubular necrosis and glomerular thrombosis in the kidneys [7, 13]: no or less tubular necrosis and glomerular thrombosis | organ protection by histological analysis ([7]; organs collected after 24 hrs): substantial organ-protection | E. coli induced PAI-1 staining in lung [8, 14]: decreased | E. coli induced TF staining in lung [8, 14]: decreased | TFPI in endothelial cells of lung [8, 14]: protected against sepsis-induced downregulation | TM in endothelial cells of lung [8, 14]: protected against sepsis-induced downregulation | TF expression in the lung ([8]; treated animals): decrease | monocyte/macrophages infiltration in the lung ([8]; treated animals): decrease | PAI1 mRNA in liver ([8]; treated at T0, mean (±SEM 8)): 8 fold | PAI1 mRNA in liver ([8]; treated at T+5, mean (±SEM 0.8)): 4 fold | PAI-1 expression in endothelial cells and macrophages ([8]; treated versus non-treated septic baboons): down-regulated | C3b deposition in the kidney [9, 15]: significantly inhibited | C5b9 deposition in the kidney [9, 15]: significantly inhibited | MBL deposition in the kidney [9, 15]: significantly inhibited | shedding of CD55 from the endothelial surface [9, 16]: protected against shedding | shedding of CD59 from the endothelial surface [9, 16]: protected against shedding | mRNA expression of CD55 and CD59 ([9]; qRT-PCR, data not shown): without significantly affecting | accumulation of macrophages in the lung ([10]; FIG. 3C): lower accumulation | accumulation of platelets in the lung and on the surface of the large vessels ([10]; FIG. 3D-E): lower accumulation | WBC count in blood ([10]; both prevention and rescue regimens, FIG. 3A): faster WBC recovery | platelet count in blood (platelet consumption) ([10]; both prevention and rescue regimens, FIG. 3B): lower plasma platelet consumption | number of neutrophils ([10]; immunostaining for cell specific markers, not shown): without significant changes | CD68 positive macrophages ([10]; immunostaining, lung, FIG. 3C): significant decrease | C5b9 deposition on aggregated platelets ([10]; lung and large vessels, FIG. 3D-E): decreased C5b9 deposition

Source: patent publication US9358266B2, “Treatment of sepsis using complement inhibitors” (The Trustees of the University of Pennsylvania, priority 2010, dated 2016)
